# Read-outs that look alike come from different tables or passages of the source.
# Experiments:
# [1] = pH-solubility profile of amorphous Letermovir (BCS approach); assay type: physicochemical; details: standard buffer solutions, thermodynamic from solid
# Procedure: The inventors conducted a solubility study of amorphous Letermovir to investigate its biopharmaceutical status by standardized measures. The inventors orientated on the guidelines of the established Biopharmaceutics Classification System (BCS). The solubility class boundary according to the BCS is based on the highest dose strength of the IR product. By using the BCS approach the equilibrium solubility of amorphous Letermovir under physiological pH conditions is determined. The pH-solubility profile of amorphous Letermovir was determined at 37±1° C. in aqueous media with a pH in the range of 1-7.5. A sufficient number of pH conditions were evaluated to accurately define the pH-solubility profile of amorphous Letermovir. The number of pH conditions for the solubility determination was based on the ionization characteristics of Letermovir. A minimum of three replicate determinations of solubility in each pH condition was conducted. The highest dose of Letermovir is exemplarily 240 mg. When dissolved in 250 ml this equates to a concentration of 0.96 mg/ml.
# [2] = Absolute bioavailability, Cohort 1 of a clinical trial (oral vs intravenous); assay type: in vivo; details: human, plasma; single 30 mg oral dose (amorphous) vs 30 mg intravenous 30 min infusion; based on AUC0-last; 12 healthy female subjects
# Procedure: Assessment of absolute bioavailability after oral administration of 30 mg Letermovir in the amorphous state versus a 30 minute intravenous administration of 30 mg Letermovir in 150 ml saline solution 0.9%. Cohort 1 of the trial was conducted in an open-label, randomized (to treatment sequence), single center cross-over design (2 periods) in 12 healthy female subjects. Subjects received a single intravenous dose of 30 mg Letermovir via a 30-minute infusion in one period (“reference”) and a single oral dose of 30 mg Letermovir in the amorphous state in the other period (“test”). In both periods subjects were in-house from Day −1 to Day 4 (72 h after dosing on Day 1). The washout period between the periods (i.e. the dosing) was at least one week. The 30 mg dose in Cohort 1 was evaluated (see FIGS. 7a and 7b). Plasma concentrations of Letermovir were determined using a lower limit of quantification (LLOQ) of 1.00 ng/mL. Pharmacokinetic parameters AUC0-∞, Cmax, F, AUC0-last, tmax, λZ, t1/2z, CL/F, CL, Vd/F, Vd, MRT, AUC0-∞/D, Cmax/D, AUC0-last/D for Cohort 1 were calculated in WinNonlin using the actual sampling times. Descriptive statistics were calculated for the plasma concentrations and for the derived pharmacokinetic parameters. Statistics included sample size (n), mean, standard deviation (SD), percentage of coefficient of variation (% CV), geometric mean, median, minimum, and maximum. […]
# [3] = Long-term stability study of Letermovir precipitate tablets; assay type: physicochemical
# Procedure: Long-term stability studies were conducted with testing of color, dissolution, degradation products and assay at regular intervals to confirm the stability of amorphous Letermovir precipitate tablets.
# In addition, disintegration, water content and hardness/breaking load were conducted as informative tests.
# Samples of one batch of each dose strength of Letermovir precipitate tablets, packaged in 45 ml HDPE bottles with child-resistant closures were stored at 25° C./60% relative humidity and at 40° C./75% relative humidity. Stability data after 36 months storage were reported.
# Additional forced degradation studies were conducted. One batch per dose strength of Letermovir was stored at 60° C. for 3 months. In order to assess the hydrolytic stability, one batch of the 20 mg dose strength was stored with open storage at 40° C./75% relative humidity for 3 months.
# [4] = Ionization characteristics (isoelectric point, pKa); assay type: physicochemical
# Description: The expressions “zwitterionic, zwitterionic properties, and zwitterion” in the context of the present invention for the API Letermovir means that a Letermovir molecule is a neutral molecule having a positive and a negative electrical charge at different locations within the same molecule. Accordingly, the API Letermovir has a charge, which changes with pH when measured in an electric field. […] The net charge is influenced by the pH value. Letermovir has a fixed value of isoelectric point (pI) being the pH value at which the number of cations is equal to that of anions. At this point (pI=5.55) the net electric charge of Letermovir is always zero. The solubility class boundary according to the BCS is based on the highest dose strength of the IR product. By using the BCS approach the equilibrium solubility of amorphous Letermovir under physiological pH conditions is determined. The pH-solubility profile of amorphous Letermovir was determined at 37±1° C. in aqueous media with a pH in the range of 1-7.5. A sufficient number of pH conditions were evaluated to accurately define the pH-solubility profile of amorphous Letermovir. The number of pH conditions for the solubility determination was based on the ionization characteristics of Letermovir. A minimum of three replicate determinations of solubility in each pH condition was conducted.
# [5] = system: HCMV isolates; assay: Antiviral activity against HCMV isolates; assay type: cell-based, human cytomegalovirus; details: Human betaherpesvirus 5; HCMV isolates of the respective individual; SD 0.0001 to 0.001
# Description: The term “pharmaceutical activity” of Letermovir denotes the antiviral activity against HCMV isolates of the respective individual, being in the range of EC50±SD of 0.0005 to 0.005±0.0001 to 0.001.
smiles,measurement,setting,value
"COc1cccc(N2CCN(C3=Nc4c(F)cccc4[C@H](CC(=O)O)N3c3cc(C(F)(F)F)ccc3OC)CC2)c1 [Letermovir, (S)-{8-Fluoro-2-[4-(3-methoxyphenyl)-1-piperazinyl]-3-[2-methoxy-5-(trifluoromethyl)phenyl]-3,4-dihydro-4-quinazolinyl}acetic acid]",solubility at 24 h,"[1]; 37 °C, aqueous buffer, pH range 1 to 7.5, summary of Table 3, read-out: solubility of Letermovir over the pH-range of 1 to 7.5",≥ 400 µg/mL
same,solubility at 24 h,"[1]; aqueous buffer, pH 2.9 (pKa1 − 1), 37°C±1°C, standard buffer, stirring 24 hours, read-out: Letermovir solubility",800 µg/mL
same,solubility at 24 h,"[1]; aqueous buffer, pH 3.9 (pKa1), 37°C±1°C, standard buffer, stirring 24 hours, read-out: Letermovir solubility",400 µg/mL
same,solubility at 24 h,"[1]; aqueous buffer, pH 4.9 (pKa1 + 1), 37°C±1°C, standard buffer, stirring 24 hours, read-out: Letermovir solubility",400 µg/mL
same,solubility at 24 h,"[1]; aqueous buffer, pH 7.5, 37°C±1°C, standard buffer, stirring 24 hours, read-out: Letermovir solubility",> 1000 µg/mL
same,solubility at 24 h,"[1]; simulated gastric fluid, pH 1, 37°C±1°C, standard buffer, stirring 24 hours, read-out: Letermovir solubility",> 900 µg/mL
same,bioavailability,[2],76%
same,stability under long-term and accelerated storage conditions,"[3]; 25°C/60% relative humidity and 40°C/75% relative humidity, 36 months",stable
same,shelf-life assigned,[3]; real time data at 25°C/60% RH,36 months
same,pKa1,[4],3.9 (pKa1)
same,isoelectric point (pI),[4]; pH at which net electric charge is zero,5.55
same,EC50,[5],0.5 to 5 nM

# — patent US10442773B2, “Amorphous letermovir and solid pharmaceutical formulations thereof for oral administration” (AICURIS ANTI-INFECTIVE CURES GMBH, priority 2013, dated 2019)
